# According to ChEMBL document CHEMBL5055663, “Histamine H3 receptor antagonists with peptidomimetic (keto)piperazine structures to inhibit Aβ oligomerisation” (Bioorg Med Chem, 2021):
# Activity calls are given as the source filed them. The rule behind the calls is not given here.
# Tests used:
# [1] = biological target: T1, Amyloid-beta precursor protein (Homo sapiens, UniProt P05067); experiment: Binding affinity to CM-5 sensor chip immobilized beta-amyloid monomer (1 to 42) (unknown origin) at 200 uM by SPR analysis
# Histamine H3 receptor [2] = biological target: T2, Histamine H3 receptor (Homo sapiens, UniProt Q9Y5N1); experiment: Displacement of [3H]Nalpha-methylhistamine from recombinant human histamine H3 receptor expressed in HEK293 cells incubated for 90 mins by competition binding assay; assay type: cell-based
# [3] = biological target: T1, Amyloid-beta precursor protein; experiment: Binding affinity to CM-5 sensor chip immobilized beta-amyloid monomer (1 to 42) (unknown origin) assessed as dissociation constant by SPR analysis
# Histamine H3 receptor [4] = biological target: T2, Histamine H3 receptor; experiment: Antagonist activity at histamine H3 receptor (unknown origin)
# T1 sequence (P05067 whole entry): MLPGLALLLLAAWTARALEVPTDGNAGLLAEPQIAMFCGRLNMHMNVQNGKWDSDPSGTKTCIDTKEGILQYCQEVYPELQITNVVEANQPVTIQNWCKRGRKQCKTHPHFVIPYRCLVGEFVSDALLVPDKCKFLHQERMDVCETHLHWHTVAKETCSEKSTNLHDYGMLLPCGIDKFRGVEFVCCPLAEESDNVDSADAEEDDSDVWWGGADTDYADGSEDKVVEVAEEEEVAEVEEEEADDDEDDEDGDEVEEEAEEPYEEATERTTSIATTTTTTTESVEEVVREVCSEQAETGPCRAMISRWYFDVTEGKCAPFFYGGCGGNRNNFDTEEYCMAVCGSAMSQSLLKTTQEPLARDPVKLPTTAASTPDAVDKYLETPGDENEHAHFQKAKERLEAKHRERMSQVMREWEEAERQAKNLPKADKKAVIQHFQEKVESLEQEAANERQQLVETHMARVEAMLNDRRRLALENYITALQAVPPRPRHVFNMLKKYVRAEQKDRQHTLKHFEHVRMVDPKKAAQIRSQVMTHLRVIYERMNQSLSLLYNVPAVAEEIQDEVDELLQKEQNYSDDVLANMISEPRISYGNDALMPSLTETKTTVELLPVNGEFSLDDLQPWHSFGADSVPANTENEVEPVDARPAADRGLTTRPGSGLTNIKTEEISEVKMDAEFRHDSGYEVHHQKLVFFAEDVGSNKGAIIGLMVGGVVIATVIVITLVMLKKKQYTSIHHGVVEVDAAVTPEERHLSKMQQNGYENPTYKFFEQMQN
# T2 sequence (Q9Y5N1 whole entry): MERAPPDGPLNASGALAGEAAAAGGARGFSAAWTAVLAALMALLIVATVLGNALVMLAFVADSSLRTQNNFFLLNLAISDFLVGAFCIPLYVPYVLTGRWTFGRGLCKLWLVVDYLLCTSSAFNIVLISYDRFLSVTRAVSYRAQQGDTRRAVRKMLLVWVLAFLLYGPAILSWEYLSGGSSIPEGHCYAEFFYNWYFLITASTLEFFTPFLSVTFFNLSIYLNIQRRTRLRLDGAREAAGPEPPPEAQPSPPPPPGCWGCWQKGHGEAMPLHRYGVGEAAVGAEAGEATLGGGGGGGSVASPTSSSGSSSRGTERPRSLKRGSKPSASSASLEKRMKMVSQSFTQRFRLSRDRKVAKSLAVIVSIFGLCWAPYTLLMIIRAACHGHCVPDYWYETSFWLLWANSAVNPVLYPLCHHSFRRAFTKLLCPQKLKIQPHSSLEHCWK
SMILES,Activity [1],Ki (Histamine H3 receptor [2]) [nM],Kd [3] [mM],Ki (Histamine H3 receptor [4]) [nM]
O=C1CNC(=O)[C@@H](Cc2ccc(OCCCN3CCCCC3)cc2)N1,inactive,158,,
O=C1CN(Cc2ccc(OCCCN3CCCCC3)cc2)C(=O)CN1,,4.9,1.55,
O=C1CN(C(=O)c2ccc(OCCCN3CCCCC3)cc2)CCN1Cc1ccccc1,,4.9,,
CN1C[C@H]2CCN(c3ccc(-c4ccc(-n5ncccc5=O)cc4)cc3)[C@H]2C1,,,,2
CC(C)[C@@H]1NC(=O)[C@H](Cc2ccc(OCCCN3CCCCC3)cc2)NC1=O,inactive,219,,
O=C1CNC(=O)[C@H](Cc2ccc(OCCCN3CCCCC3)cc2)N1,inactive,74,,
CC(=O)N1C(=O)/C(=C/c2ccc(OCCCN3CCCCC3)cc2)NC(=O)[C@@H]1Cc1ccccc1,inactive,4.4,,
O=C1CN(Cc2ccc(OCCCN3CCCCC3)cc2)CCN1Cc1ccccc1,,11.3,0.0516,
C[C@@H]1NC(=O)[C@H](Cc2ccc(OCCCN3CCCCC3)cc2)NC1=O,inactive,159,,
O=C1CNC(=O)/C(=C/c2ccc(OCCCN3CCCCC3)cc2)N1,inactive,22.3,,
O=C1N[C@@H](Cc2ccc(OCCCN3CCCCC3)cc2)C(=O)N[C@H]1Cc1ccccc1,inactive,39,12,

# Continued by falling Ki (Histamine H3 receptor [2]), values first:
Activity [1],Ki (Histamine H3 receptor [2]) [nM],Kd [3] [mM],Ki (Histamine H3 receptor [4]) [nM],SMILES
inactive,3.8,,,CC(=O)N1CC(=O)N/C(=C\c2ccc(OCCCN3CCCCC3)cc2)C1=O
inactive,3.8,,,O=c1[nH]/c(=C\c2ccc(OCCCN3CCCCC3)cc2)c(=O)[nH]/c1=C\c1ccccc1
,2.8,,,O=C1CN(C(=O)c2ccc(OCCCN3CCCCC3)cc2)CCN1
inactive,2,,,c1cc(OCCCN2CCCCC2)ccc1C[C@H]1CNCCN1
inactive,2,,,O=C1N[C@@H](Cc2ccccc2)C(=O)N/C1=C\c1ccc(OCCCN2CCCCC2)cc1 (stereo in doubt)
inactive,1.1,,,c1ccc(C[C@H]2CN[C@@H](Cc3ccc(OCCCN4CCCCC4)cc3)CN2)cc1
